From patent US20210045385A1, “PYRIDAZINONE-SUBSTITUTED KETOXIMES AS HERBICIDES” (FMC Corporation, priority 2018, published 2021)

Assays:
Type in all cases: in vivo
[1] = test system: Italian ryegrass (Lolium multiflorum); test: Test A preemergence, visual plant response rating; conditions: approx. 10 days
In short: (§1)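 Greenhouse pot test in loam–sand soil mix: compound in a surfactant-containing non-phytotoxic solvent applied preemergence (directed soil spray) or postemergence (one- to two-leaf plants, 2–10 cm). Injury scored visually after ~10 days, 0–100.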

[2] = test system: barnyardgrass (Echinochloa crus-galli); test: Test A preemergence, visual plant response rating; conditions: approx. 10 days
In short: as §1

[3] = test system: foxtail, green (green foxtail, Setaria viridis); test: Test A preemergence, visual plant response rating; conditions: approx. 10 days
In short: as §1

kochia (Kochia scoparia) [4] = test: Test A preemergence, visual plant response rating; conditions: approx. 10 days
In short: as §1

[5] = test system: pigweed (Amaranthus retroflexus); test: Test A preemergence, visual plant response rating; conditions: approx. 10 days
In short: as §1

[6] = test system: ragweed (common ragweed, Ambrosia elatior); test: Test A preemergence, visual plant response rating; conditions: approx. 10 days
In short: as §1

[7] = test system: Italian ryegrass (Lolium multiflorum); test: Test A postemergence, visual plant response rating; conditions: for Ryegrass, Italian plant response rating (0 to 100 scale): 500 g ai/ha, postemergence, 0 is no effect, 100 is complete control; for Ryegrass, Italian plant response rating: Postemergence, 125 g ai/ha, 0 to 100 scale (0 no effect, 100 complete control)
In short: as §1

[8] = test system: barnyardgrass (Echinochloa crus-galli); test: Test A postemergence, visual plant response rating; conditions: for Barnyardgrass plant response rating (0 to 100 scale): 500 g ai/ha, postemergence, 0 is no effect, 100 is complete control; for Barnyardgrass plant response rating: Postemergence, 125 g ai/ha, 0 to 100 scale (0 no effect, 100 complete control)
In short: as §1

[9] = test system: blackgrass (Alopecurus myosuroides); test: Test A postemergence, visual plant response rating; conditions: for Blackgrass plant response rating (0 to 100 scale): 500 g ai/ha, postemergence, 0 is no effect, 100 is complete control; for Blackgrass plant response rating: Postemergence, 125 g ai/ha, 0 to 100 scale (0 no effect, 100 complete control)
In short: as §1

corn (Zea mays) = test: Test A postemergence, visual plant response rating; conditions: for Corn plant response rating (0 to 100 scale): 500 g ai/ha, postemergence, 0 is no effect, 100 is complete control; for Corn plant response rating: Postemergence, 125 g ai/ha, 0 to 100 scale (0 no effect, 100 complete control)
In short: as §1

[10] = test system: foxtail, green (green foxtail, Setaria viridis); test: Test A postemergence, visual plant response rating; conditions: for Foxtail, Green plant response rating (0 to 100 scale): 500 g ai/ha, postemergence, 0 is no effect, 100 is complete control; for Foxtail, Green plant response rating: Postemergence, 125 g ai/ha, 0 to 100 scale (0 no effect, 100 complete control)
In short: as §1

[11] = test system: galium (catchweed bedstraw, Galium aparine); test: Test A postemergence, visual plant response rating; conditions: for Galium plant response rating (0 to 100 scale): 500 g ai/ha, postemergence, 0 is no effect, 100 is complete control; for Galium plant response rating: Postemergence, 125 g ai/ha, 0 to 100 scale (0 no effect, 100 complete control)
In short: as §1

kochia (Kochia scoparia) [12] = test: Test A postemergence, visual plant response rating; conditions: for Kochia plant response rating (0 to 100 scale): 500 g ai/ha, postemergence, 0 is no effect, 100 is complete control; for Kochia plant response rating: Postemergence, 125 g ai/ha, 0 to 100 scale (0 no effect, 100 complete control)
In short: as §1

[13] = test system: pigweed (Amaranthus retroflexus); test: Test A postemergence, visual plant response rating; conditions: for Pigweed plant response rating (0 to 100 scale): 500 g ai/ha, postemergence, 0 is no effect, 100 is complete control; for Pigweed plant response rating: Postemergence, 125 g ai/ha, 0 to 100 scale (0 no effect, 100 complete control)
In short: as §1

[14] = test system: ragweed (common ragweed, Ambrosia elatior); test: Test A postemergence, visual plant response rating; conditions: for Ragweed plant response rating (0 to 100 scale): 500 g ai/ha, postemergence, 0 is no effect, 100 is complete control; for Ragweed plant response rating: Postemergence, 125 g ai/ha, 0 to 100 scale (0 no effect, 100 complete control)
In short: as §1

[15] = test system: wheat (Triticum aestivum); test: Test A postemergence, visual plant response rating; conditions: for Wheat plant response rating (0 to 100 scale): 500 g ai/ha, postemergence, 0 is no effect, 100 is complete control; for Wheat plant response rating: Postemergence, 125 g ai/ha, 0 to 100 scale (0 no effect, 100 complete control)
In short: as §1

[16] = test system: barnyardgrass (Echinochloa crus-galli); test: Test B flooded paddy test, visual plant response rating; conditions: 250 g ai/ha, Flood, applied to paddy water, 2-leaf stage, evaluated after 13 to 15 days
In short: (§2)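 At the two-leaf stage, seedlings received compound applied to paddy water flooded 3 cm above soil, a level sustained until assessment. Greenhouse incubation lasted 13 to 15 days before visual comparison with control plants.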

[17] = test system: ducksalad (Heteranhera limosa); test: as above; conditions: 250 g ai/ha, Flood, applied to paddy water, 2-leaf stage, evaluated after 13 to 15 days
In short: as §2

rice (Oryza sativa) = test: as above; conditions: 250 g ai/ha, Flood, applied to paddy water, 2-leaf stage, evaluated after 13 to 15 days
In short: as §2

[18] = test system: sedge, umbrella (small-flower umbrella sedge, Cyperus difformis); test: as above; conditions: 250 g ai/ha, Flood, applied to paddy water, 2-leaf stage, evaluated after 13 to 15 days
In short: as §2

Row | Compound | Ryegrass, Italian plant response rating (0 to 100 scale) ([1]; 125 g ai/ha Preemergence) | Ryegrass, Italian plant response rating (0 to 100 scale) ([1]; 500 g ai/ha Preemergence) | Barnyardgrass plant response rating (0 to 100 scale) ([2]; 125 g ai/ha Preemergence) | Barnyardgrass plant response rating (0 to 100 scale) ([2]; 500 g ai/ha Preemergence) | Foxtail, Green plant response rating (0 to 100 scale) ([3]; 125 g ai/ha Preemergence) | Foxtail, Green plant response rating (0 to 100 scale) ([3]; 500 g ai/ha Preemergence) | Kochia plant response rating (0 to 100 scale) (kochia (Kochia scoparia) [4]; 125 g ai/ha Preemergence) | Kochia plant response rating (0 to 100 scale) (kochia (Kochia scoparia) [4]; 500 g ai/ha Preemergence) | Pigweed plant response rating (0 to 100 scale) ([5]; 125 g ai/ha Preemergence) | Pigweed plant response rating (0 to 100 scale) ([5]; 500 g ai/ha Preemergence) | Ragweed plant response rating (0 to 100 scale) ([6]; 125 g ai/ha Preemergence) | Ragweed plant response rating (0 to 100 scale) ([6]; 500 g ai/ha Preemergence) | Ryegrass, Italian plant response rating (0 to 100 scale) [7] | Ryegrass, Italian plant response rating [7] | Barnyardgrass plant response rating (0 to 100 scale) [8] | Barnyardgrass plant response rating [8] | Blackgrass plant response rating (0 to 100 scale) [9] | Blackgrass plant response rating [9] | Corn plant response rating (0 to 100 scale) (corn (Zea mays)) | Corn plant response rating (corn (Zea mays)) | further results
1 | Cc1ccccc1/C(=N\OC(C)C)c1c(O)c(C)nn(C)c1=O [Compound 20] | 30 | 70 | 20 | 70 | 0 | 60 | 0 | 0 | 80 | 100 | 30 | 90 | 50 | 20 | 50 | 30 | 60 | 20 | 0 | 0 | Foxtail, Green plant response rating (0 to 100 scale) [10]: 60; Foxtail, Green plant response rating [10]: 30; Galium plant response rating (0 to 100 scale) [11]: 90; Galium plant response rating [11]: 80; Kochia plant response rating (0 to 100 scale) (kochia (Kochia scoparia) [12]): 50; Kochia plant response rating (kochia (Kochia scoparia) [12]): 0; Pigweed plant response rating (0 to 100 scale) [13]: 70; Pigweed plant response rating [13]: 60; Ragweed plant response rating (0 to 100 scale) [14]: 80; Ragweed plant response rating [14]: 60; Wheat plant response rating (0 to 100 scale) [15]: 0; Wheat plant response rating [15]: 0; Plant response rating, Barnyardgrass (0 to 100 scale, 0 is no effect, 100 is complete control) [16]: 0; Plant response rating, Ducksalad (0 to 100 scale, 0 is no effect, 100 is complete control) [17]: 0; Plant response rating, Rice (0 to 100 scale, 0 is no effect, 100 is complete control) (rice (Oryza sativa)): 0; Plant response rating, Sedge, Umbrella (0 to 100 scale, 0 is no effect, 100 is complete control) [18]: 0
2 | CCO/N=C(/c1cccc(Cl)c1)c1c(O)c(C)nn(C)c1=O [Compound 9] | 20 | 40 | 0 | 50 | 20 | 40 | 10 | 60 | 40 | 90 | 80 | 90 | 60 | 40 | 20 | 0 | 20 | 0 | 10 | 0 | Foxtail, Green plant response rating (0 to 100 scale) [10]: 30; Foxtail, Green plant response rating [10]: 10; Galium plant response rating (0 to 100 scale) [11]: 90; Galium plant response rating [11]: 80; Kochia plant response rating (0 to 100 scale) (kochia (Kochia scoparia) [12]): 60; Kochia plant response rating (kochia (Kochia scoparia) [12]): 10; Pigweed plant response rating (0 to 100 scale) [13]: 20; Pigweed plant response rating [13]: 0; Ragweed plant response rating (0 to 100 scale) [14]: 80; Ragweed plant response rating [14]: 30; Wheat plant response rating (0 to 100 scale) [15]: 0; Wheat plant response rating [15]: 0; Plant response rating, Barnyardgrass (0 to 100 scale, 0 is no effect, 100 is complete control) [16]: 0; Plant response rating, Ducksalad (0 to 100 scale, 0 is no effect, 100 is complete control) [17]: 0; Plant response rating, Rice (0 to 100 scale, 0 is no effect, 100 is complete control) (rice (Oryza sativa)): 0; Plant response rating, Sedge, Umbrella (0 to 100 scale, 0 is no effect, 100 is complete control) [18]: 0
3 | Cc1cccc(/C(=N\O)c2c(O)c(C)nn(C)c2=O)c1 [Compound 21] | 0 | 0 | 0 | 0 | 0 | 0 | 0 | 0 | 0 | 0 | 0 | 0 | 20 | 0 | 0 | 0 | 0 | 0 | 0 | 0 | Foxtail, Green plant response rating (0 to 100 scale) [10]: 0; Foxtail, Green plant response rating [10]: 0; Galium plant response rating (0 to 100 scale) [11]: 80; Galium plant response rating [11]: 0; Kochia plant response rating (0 to 100 scale) (kochia (Kochia scoparia) [12]): 10; Kochia plant response rating (kochia (Kochia scoparia) [12]): 0; Pigweed plant response rating (0 to 100 scale) [13]: 60; Pigweed plant response rating [13]: 0; Ragweed plant response rating (0 to 100 scale) [14]: 20; Ragweed plant response rating [14]: 0; Wheat plant response rating (0 to 100 scale) [15]: 0; Wheat plant response rating [15]: 0; Plant response rating, Barnyardgrass (0 to 100 scale, 0 is no effect, 100 is complete control) [16]: 0; Plant response rating, Ducksalad (0 to 100 scale, 0 is no effect, 100 is complete control) [17]: 0; Plant response rating, Rice (0 to 100 scale, 0 is no effect, 100 is complete control) (rice (Oryza sativa)): 0; Plant response rating, Sedge, Umbrella (0 to 100 scale, 0 is no effect, 100 is complete control) [18]: 0
